From PubChem BioAssay (NCI) come the findings set out here.

Test systems include SK-MEL-2 melanoma; RPMI-8226 leukemia; IGROV1 ovarian; SNB-78 CNS; XF 498 CNS; DLD-1 colon; NCI-H460 lung; RXF-631 renal; A498 renal; HT29 colon; HOP-92 NSCLC; MDA-MB-435.
Holding throughout (experiment): NCI tumour cell line growth inhibition, 48 h

Structures are written as SMILES.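 Following 48 hours of exposure in 96-well plates, responses at five concentrations were used to interpolate endpoints linearly. TGI is the concentration that stops growth completely.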 Where only a bound is given, the exact number is not on record here.

On to `CC(=O)Nc1ccc(/C=c2\sc3nnc(/C=C/c4ccccc4)n3c2=O)cc1`, for which the TGI with SK-MEL-2 melanoma, with RPMI-8226 leukemia, with IGROV1 ovarian, in the assay with SNB-78 CNS, in the assay with XF 498 CNS and in the assay with DLD-1 colon was over 50 µM in each case. The TGI in the assay with NCI-H460 lung, in the assay with RXF-631 renal and in the assay on A498 renal was over 50 µM throughout.

For the compound `COc1ccc(-c2c(N)[n+]([O-])c3cc(C)c(C)cc3[n+]2[O-])cc1OC`, the TGI with SK-MEL-2 melanoma, in the assay with RPMI-8226 leukemia, with IGROV1 ovarian, in the assay with SNB-78 CNS, in the assay on XF 498 CNS and with HT29 colon was over 100 µM each time. In addition, the TGI was over 100 µM with DLD-1 colon, over 100 µM in the assay with NCI-H460 lung, 38.8 µM with RXF-631 renal and over 100 µM in the assay with A498 renal.

As to `COc1cc(C2C(C(=O)O)=C(C)Oc3cc4c(cc32)OCO4)cc(OC)c1OC` (configuration not stated), the TGI in the assay on HOP-92 NSCLC is over 100 µM; in the assay on IGROV1 ovarian, over 100 µM; with SNB-78 CNS, over 100 µM; in the assay with XF 498 CNS, 95.9 µM; in the assay with HT29 colon, over 100 µM; in the assay with DLD-1 colon it was over 100 µM. Further, the TGI in the assay on NCI-H460 lung and in the assay on RXF-631 renal was over 100 µM each time.

Take `COCCN1C2=CCCCC2=Nc2c(N)nc(N)nc21`: the TGI in the assay on SK-MEL-2 melanoma, in the assay on HOP-92 NSCLC, in the assay with RPMI-8226 leukemia, with IGROV1 ovarian, in the assay on SNB-78 CNS and in the assay on XF 498 CNS was over 100 µM throughout. Besides, the TGI in the assay on HT29 colon, in the assay with DLD-1 colon, in the assay on NCI-H460 lung, in the assay on RXF-631 renal and in the assay on A498 renal was over 100 µM in each case.

As for `CC1CC2C3CC(F)C4=CC(=O)C=CC4(C)C3(F)C(O)CC2(C)C1(O)C(=O)CO` (configuration not stated), the TGI in the assay with SK-MEL-2 melanoma, with HOP-92 NSCLC, in the assay on RPMI-8226 leukemia, in the assay with IGROV1 ovarian, in the assay on SNB-78 CNS and in the assay on XF 498 CNS was over 100 µM each time. The TGI in the assay with HT29 colon, with DLD-1 colon, with NCI-H460 lung and in the assay on RXF-631 renal was over 100 µM each time.

Consider `COC(=O)C(C(=O)C(=O)Nc1ccccc1OC)c1csc(-n2nc(-c3ccccc3)cc2-c2ccccc2)n1` (configuration not stated), for which the TGI in the assay on HOP-92 NSCLC, in the assay on RPMI-8226 leukemia, in the assay with IGROV1 ovarian, with SNB-78 CNS, in the assay on XF 498 CNS and in the assay with HT29 colon was over 100 µM in each case. The TGI in the assay with DLD-1 colon, in the assay on NCI-H460 lung, in the assay on RXF-631 renal and with A498 renal was over 100 µM each time.

As for `CN/N=C(\C)CC(=O)Nc1cccc(Cl)c1C`, the TGI with SK-MEL-2 melanoma, with HOP-92 NSCLC, in the assay with RPMI-8226 leukemia, in the assay on IGROV1 ovarian, with SNB-78 CNS and in the assay on XF 498 CNS was over 100 µM in each case. The TGI in the assay on HT29 colon, in the assay on DLD-1 colon, in the assay with NCI-H460 lung, in the assay with RXF-631 renal and with A498 renal was over 100 µM in each case.

Take `CC1=CCC2(C#N)CCC1C2=O` (configuration not stated): the TGI in the assay with SK-MEL-2 melanoma, with RPMI-8226 leukemia, with IGROV1 ovarian, in the assay with SNB-78 CNS, in the assay with XF 498 CNS and in the assay on HT29 colon was over 100 µM in each case. Besides, the TGI in the assay with DLD-1 colon, with NCI-H460 lung, in the assay on RXF-631 renal and in the assay with A498 renal was over 100 µM in each case.

Turning to `C/C=C/C=C/[C@H]1Cc2cc(O)cc(O)c2O1`, the TGI in the assay on SK-MEL-2 melanoma, in the assay on HOP-92 NSCLC, with IGROV1 ovarian, with SNB-78 CNS, with XF 498 CNS and in the assay on HT29 colon was over 100 µM throughout. Besides, the TGI in the assay with DLD-1 colon, with NCI-H460 lung, in the assay on RXF-631 renal and in the assay with A498 renal was over 100 µM each time.

With `CSc1s[s+]c(SC)c1[O-]`, the TGI in the assay on SK-MEL-2 melanoma was over 100 µM; in the assay with HOP-92 NSCLC it was over 100 µM; in the assay on IGROV1 ovarian, over 100 µM; in the assay with SNB-78 CNS it was over 100 µM; in the assay with XF 498 CNS it was over 100 µM; in the assay with HT29 colon, 74.1 µM. Also, the TGI in the assay with DLD-1 colon is 33.6 µM; with NCI-H460 lung, over 100 µM; in the assay on RXF-631 renal, 41.8 µM; in the assay on A498 renal it was over 100 µM.

Take `Cc1oc2c(c1C(=O)c1ccccc1)C(=O)c1ccccc1C2=O`: the TGI with MDA-MB-435 was 2.97 µM; in the assay on SK-MEL-2 melanoma, 9.04 µM; in the assay with HOP-92 NSCLC, 4.65 µM; with RPMI-8226 leukemia, 23.8 µM; in the assay with IGROV1 ovarian, 15.9 µM; in the assay with SNB-78 CNS, over 100 µM. Moreover, the TGI was 5.18 µM in the assay on XF 498 CNS; 39.6 µM with HT29 colon; 10 µM with DLD-1 colon; 34.2 µM in the assay on NCI-H460 lung; over 100 µM with RXF-631 renal; 33.9 µM in the assay with A498 renal.

For the compound `C=C(CO)CC(O)c1ccccc1` (configuration not stated), the TGI with SK-MEL-2 melanoma, in the assay with HOP-92 NSCLC, in the assay with RPMI-8226 leukemia, with IGROV1 ovarian, in the assay with SNB-78 CNS and in the assay on XF 498 CNS was over 100 µM each time. Besides, the TGI in the assay on HT29 colon, in the assay with DLD-1 colon, in the assay with NCI-H460 lung, with RXF-631 renal and with A498 renal was over 100 µM in each case.

For `Cc1ccccc1NC(=O)C(=O)Cc1nc2ccccc2s1`, the TGI in the assay with SK-MEL-2 melanoma, in the assay with HOP-92 NSCLC, with IGROV1 ovarian, in the assay on SNB-78 CNS, in the assay with XF 498 CNS and in the assay on HT29 colon was over 100 µM throughout. Besides, the TGI in the assay with DLD-1 colon, in the assay with NCI-H460 lung, in the assay with RXF-631 renal and in the assay with A498 renal was over 100 µM each time.

For `O=C1C=C(Br)C(=O)C(Br)=C1`, the TGI in the assay with SK-MEL-2 melanoma was over 100 µM; in the assay with HOP-92 NSCLC, over 100 µM; in the assay with RPMI-8226 leukemia, over 82.2 µM; in the assay on IGROV1 ovarian, over 100 µM; with SNB-78 CNS, over 100 µM; in the assay on XF 498 CNS, over 100 µM. For the same compound, the TGI in the assay on HT29 colon, with DLD-1 colon, with NCI-H460 lung, in the assay on RXF-631 renal and in the assay with A498 renal was over 100 µM in each case.

As to `CNC(=O)OCc1nc(S(C)=O)n(C)c1COC(=O)NC` (configuration not stated), the TGI in the assay on SK-MEL-2 melanoma was over 100 µM; in the assay with HOP-92 NSCLC, over 77.8 µM; with RPMI-8226 leukemia, over 100 µM; in the assay on IGROV1 ovarian it was over 82.1 µM; in the assay on SNB-78 CNS, over 92.1 µM; in the assay on XF 498 CNS, over 100 µM. For the same compound, the TGI is over 100 µM with HT29 colon; over 100 µM in the assay on DLD-1 colon; over 100 µM in the assay on NCI-H460 lung; over 100 µM in the assay on RXF-631 renal; over 65.6 µM with A498 renal.

Turning to `C=C(C)C1CC[C@]2(C(=O)O)CCC3(C)[C@H](CCC4[C@@]5(C)CC[C@H](OC6OC(CO)C(O)C6OC6OC(C)C(O)C(O)C6O)[C@@](C)(CO)C5CC[C@]43C)C12` (some centres not stated), the TGI in the assay with SK-MEL-2 melanoma, in the assay with IGROV1 ovarian, with SNB-78 CNS, in the assay with XF 498 CNS, in the assay on HT29 colon and with DLD-1 colon was over 100 µM in each case. Further, the TGI in the assay with NCI-H460 lung and in the assay with RXF-631 renal was over 100 µM in each case.
